Data reported in US20240343732A1, “COMPOUNDS FOR DEGRADATION OF CYCLIN-DEPENDENT KINASE 7(CDK7)” (QURIENT CO., LTD., priority 2021, published 2024).

Key:
CDK1 = molecular target: T1, CDK1 (Homo sapiens, UniProt P06493); test: Binding assay (FRET, LanthaScreen Eu, Tracer236) for CDK1; conditions: for IC50: read-out: CDK1 IC50 (enzyme binding assay)
T1 construct: His; purchased Invitrogen PR4768C
Method: (§1) Inhibition activity of compound to CDK7 kinase was tested in a binding assay which was applied to the FRET (fluorescence resonance energy transfer) principle from the europium (Eu) donor fluorophore to the acceptor fluorophore on the kinase tracer. Test compounds were made to 1.125 mM of compound solution, and then this compound solution 4-fold serial diluted in 8 steps using an automated liquid handler (JANUS™, PerkinElmer). 80 nL/well of each diluted compound solution was added into the 384-well plate (Greiner, Cat #784075) first and 7.5 ul/well of working solution [5 nM of CDK7/CycH/MNAT1 (Invitrogen, Cat #PR6749B), 4 nM of Biotin anti-His Tag Antibody (Invitrogen, Cat #PV6090), and LanthaScreen® Eu-Streptavidin (Invitrogen, Cat #PV6025)] was added. After mixing the solution well, the same volume with the working solution of Tracer236 (Invitrogen, Cat #PV5592) was added into each well in the plate. The plate was incubated for 60 minutes at room temperature and then all the fluorescence were measured using Envision leader (Perkin Elmer, USA) [Laser as excitation light; […] as the first and the second emission filter]. Data was analysed using XL Fit software.
(§2) All of the synthesized compounds were screened in the above-mentioned assay procedure. To identify the inhibition activity of compounds for other CDKs including CDK1 (Invitrogen, Cat #PR4768C), CDK2 (Invitrogen, Cat #PR4448B) and CDK5 (Invitrogen, Cat #PR8543B) were tested using the same protocol under reasonable concentration of Tracer236 and kinases for each assay. The formula for the assay buffer summarized in below table.

CDK2 = molecular target: T2, CDK2 (Homo sapiens, UniProt P24941); test: Binding assay (FRET, LanthaScreen Eu, Tracer236) for CDK2; conditions: for IC50: read-out: CDK2 IC50 (enzyme binding assay)
T2 construct: His; purchased Invitrogen PR4448B
Method: as §1, §2

CDK5 = molecular target: T3, CDK5 (Homo sapiens, UniProt Q00535); test: Binding assay (FRET, LanthaScreen Eu, Tracer236) for CDK5; conditions: for IC50: read-out: CDK5 IC50 (enzyme binding assay)
T3 construct: His; purchased Invitrogen PR8543B
T3 sequence (Q00535 whole entry): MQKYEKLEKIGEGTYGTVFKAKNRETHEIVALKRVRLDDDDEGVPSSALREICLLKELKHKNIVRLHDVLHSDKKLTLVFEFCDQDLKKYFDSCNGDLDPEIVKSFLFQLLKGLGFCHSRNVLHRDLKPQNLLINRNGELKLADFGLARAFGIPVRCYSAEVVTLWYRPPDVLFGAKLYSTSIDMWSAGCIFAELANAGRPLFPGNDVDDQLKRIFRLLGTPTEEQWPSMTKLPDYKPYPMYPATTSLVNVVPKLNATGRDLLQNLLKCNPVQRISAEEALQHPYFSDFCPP
T3 sequence (Q15078 99-307 partner limits assumed): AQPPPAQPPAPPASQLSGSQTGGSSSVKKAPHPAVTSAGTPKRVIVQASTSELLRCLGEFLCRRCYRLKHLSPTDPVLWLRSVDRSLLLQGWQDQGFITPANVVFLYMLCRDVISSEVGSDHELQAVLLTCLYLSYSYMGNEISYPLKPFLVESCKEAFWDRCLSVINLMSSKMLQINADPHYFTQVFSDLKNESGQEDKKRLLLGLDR
Method: as §1, §2

CDK7/CycH/MNAT1 = molecular target: T4, CDK7/CycH/MNAT1 (Homo sapiens, UniProt P50613); test: Binding assay (FRET, LanthaScreen Eu, Tracer236) for CDK7; conditions: read-out: CDK7 IC50 (enzyme binding assay)
T4 construct: His; purchased Invitrogen PR6749B
T4 sequence (P50613 whole entry): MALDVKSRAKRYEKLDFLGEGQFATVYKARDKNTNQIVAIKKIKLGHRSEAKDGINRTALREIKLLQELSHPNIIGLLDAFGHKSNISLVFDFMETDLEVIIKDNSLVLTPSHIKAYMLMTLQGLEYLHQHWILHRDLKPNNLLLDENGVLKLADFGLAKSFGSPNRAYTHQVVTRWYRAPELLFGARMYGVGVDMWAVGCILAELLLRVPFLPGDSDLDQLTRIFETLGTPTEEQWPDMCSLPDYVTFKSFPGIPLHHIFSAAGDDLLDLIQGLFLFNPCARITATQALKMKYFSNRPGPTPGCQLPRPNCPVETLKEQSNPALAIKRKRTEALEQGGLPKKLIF
T4 sequence (P51946 whole entry partner): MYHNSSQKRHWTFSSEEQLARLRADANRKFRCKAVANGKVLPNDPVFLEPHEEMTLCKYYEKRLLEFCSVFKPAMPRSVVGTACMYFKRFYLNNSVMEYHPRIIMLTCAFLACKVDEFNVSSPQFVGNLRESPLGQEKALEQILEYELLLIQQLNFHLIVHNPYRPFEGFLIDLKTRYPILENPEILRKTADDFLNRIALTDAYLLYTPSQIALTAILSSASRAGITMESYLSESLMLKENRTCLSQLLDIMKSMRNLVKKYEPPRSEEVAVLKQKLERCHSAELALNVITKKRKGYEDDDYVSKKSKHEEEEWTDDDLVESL
T4 sequence (P51948 whole entry partner): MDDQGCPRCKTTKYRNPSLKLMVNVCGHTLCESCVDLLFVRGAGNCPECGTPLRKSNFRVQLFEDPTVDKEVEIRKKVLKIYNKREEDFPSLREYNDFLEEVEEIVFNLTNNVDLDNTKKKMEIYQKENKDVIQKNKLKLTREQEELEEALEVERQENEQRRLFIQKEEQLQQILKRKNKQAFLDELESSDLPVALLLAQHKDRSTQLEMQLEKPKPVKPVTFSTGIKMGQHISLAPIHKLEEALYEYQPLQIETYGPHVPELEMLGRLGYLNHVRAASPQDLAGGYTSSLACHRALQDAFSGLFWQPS
Method: as §1, §2

CDK7 protein = molecular target: T5, CDK7 protein (Homo sapiens, UniProt P50613); test: Western blot assay for CDK7 protein degradation in A2780 cells; assay type: cell-based; conditions: 24 hours; for DC50: read-out: Compound concentration that caused 50% CDK7 protein degradation in A2780 cells (DC50);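 on all read-outs here: A is DC50 up to 100 nM B is 100 to 1000 nM C is above 1000 nM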
T5 construct: To verify endogenous CDK7 protein degradation; endogenous in cells; host or cells: A2780 (ECACC 93112519)
T5 sequence (P50613 whole entry): as the sequence (P50613 whole entry) above
Method: Human ovarian cancer cell line, A2780 (Cat #93112519) was obtained from ECACC. Cells were grown in RPMI-1640 media (Invitrogen, Cat #22400105) supplemented with 10% FBS (Hyclone, Cat #SH30084.03) and 1% penicillin/streptomycin (Hyclone, Cat #SV30010) and cultured at 37° C., 5% Co2 in a humidified chamber. All cell lines were routinely tested for mycoplasma.
To verify endogenous CDK7 protein degradation upon treatment of CDK7-specific degrader, the western blot assay was conducted a 24 hours' time period. 6×10^5 cells/well of A2780 cells were plated in 6-well plate. After 24 hours, the cells were treated with various concentrations of the compound corresponding range. DMSO solvent without compound served as a control and final DMSO concentration was not to exceed 0.1% of total volume. After 24 hours of incubation at 37° C., 5% Co2 incubator, cells were collected and lysed with 60 ul of lysis buffer. Collected lysates were incubated for 30 min on ice and collect supernatant through centrifugation at 12,000 rpm for 10 min at 4° C. The protein in lysates were quantified with BCA protein quantification kit (Pierce, Cat #23227) following manufacture's protocol. Cell lysates were diluted into 1 ug/ul of concentration with lysis buffer. 20 ug of protein was loaded to each well of 4˜12% Bis-Tris gel (Invitrogen, Cat #NP0336BOX) with MOPS running buffer (Invitrogen, Cat #NP0001). The proteins were transferred from gel to membrane and incubated with primary antibody as followed at 4° C. overnight; CDK7 (CST, Cat #2090S) and β-actin (Santa Cruz, Cat #sc-47778) 1:20,000. The signals were developed and acquired with ImageQuant™ LAS 4000.

T1 sequence (P06493 whole entry): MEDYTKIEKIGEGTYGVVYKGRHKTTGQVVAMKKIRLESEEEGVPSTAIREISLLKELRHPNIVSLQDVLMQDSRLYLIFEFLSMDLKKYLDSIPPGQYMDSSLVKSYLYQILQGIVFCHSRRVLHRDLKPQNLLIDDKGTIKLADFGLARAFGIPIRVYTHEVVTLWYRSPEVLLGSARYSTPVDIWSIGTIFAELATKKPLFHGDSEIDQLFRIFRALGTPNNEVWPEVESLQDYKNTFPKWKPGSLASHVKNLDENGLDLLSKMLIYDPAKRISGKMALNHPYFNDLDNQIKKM
T1 sequence (P14635 whole entry partner): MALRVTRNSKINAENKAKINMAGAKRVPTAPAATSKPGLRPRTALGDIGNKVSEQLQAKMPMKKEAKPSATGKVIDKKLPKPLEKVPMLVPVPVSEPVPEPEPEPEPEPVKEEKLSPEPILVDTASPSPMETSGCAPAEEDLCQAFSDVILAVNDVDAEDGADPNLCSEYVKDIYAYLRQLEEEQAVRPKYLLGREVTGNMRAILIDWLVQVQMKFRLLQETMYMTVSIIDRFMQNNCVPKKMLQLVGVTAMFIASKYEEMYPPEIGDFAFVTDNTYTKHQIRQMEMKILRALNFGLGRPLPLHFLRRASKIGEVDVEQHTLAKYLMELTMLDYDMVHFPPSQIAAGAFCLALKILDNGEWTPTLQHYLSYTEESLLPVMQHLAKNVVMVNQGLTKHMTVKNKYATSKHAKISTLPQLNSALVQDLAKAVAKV

| CDK1/CDK7: Selectivity of CDK7 inhibition over CDK1 inhibition (CDK1) | IC50 (CDK1) | CDK2/CDK7: Selectivity of CDK7 inhibition over CDK2 inhibition (CDK2) | IC50 (CDK2) | CDK5/CDK7: Selectivity of CDK7 inhibition over CDK5 inhibition (CDK5) | IC50 (CDK5) | IC50 (CDK7/CycH/MNAT1) | DC50 (CDK7 protein) | Compound concentration that caused 50% CDK7 protein degradation in A2780 cells (DC50, nM) (CDK7 protein) | SMILES |
| --- | --- | --- | --- | --- | --- | --- | --- | --- | --- |
| A (A indicates [fold] > 500) | > 1000 nM | A (A indicates [fold] > 500) | > 1000 nM | A (A indicates [fold] > 500) | > 1000 nM | ≤ 100 nM | ≤ 100 nM |  | Cc1ncsc1-c1ccc(CNC(=O)[C@@H]2C[C@@H](O)CN2C(=O)[C@@H](NC(=O)C2(F)CC2)C(C)(C)C)c(OCCOCCOCCOCCNc2ccc3c(-c4ccccc4CNc4nc(O[C@@H]5CCCNC5)nc5c(C(C)C)cnn45)nccc3c2)c1 [Compound 19] |
| A (A indicates [fold] > 500) | > 1000 nM | A (A indicates [fold] > 500) | > 1000 nM | A (A indicates [fold] > 500) | > 1000 nM | ≤ 100 nM | ≤ 100 nM |  | Cc1ncsc1-c1ccc(CNC(=O)[C@@H]2C[C@@H](O)CN2C(=O)[C@@H](NC(=O)C2(F)CC2)C(C)(C)C)c(OCCOCCNc2ccc3c(-c4ccccc4CNc4nc(O[C@@H]5CCCNC5)nc5c(C(C)C)cnn45)nccc3c2)c1 [Compound 20] |
| A (A indicates [fold] > 500) | > 1000 nM | A (A indicates [fold] > 500) | > 1000 nM | A (A indicates [fold] > 500) | > 1000 nM | ≤ 100 nM | ≤ 100 nM |  | Cc1ncsc1-c1ccc(CNC(=O)[C@@H]2C[C@@H](O)CN2C(=O)[C@@H](NC(=O)C2(F)CC2)C(C)(C)C)c(OCCOCCOCCOCCOCCNc2ccc3c(-c4ccccc4CNc4nc(O[C@@H]5CCCNC5)nc5c(C(C)C)cnn45)nccc3c2)c1 [Compound 21] |
| A (A indicates [fold] > 500) | > 1000 nM | A (A indicates [fold] > 500) | > 1000 nM | B (B indicates 50 < [fold] ≤ 500) | > 1000 nM | 100 to 1000 nM | 100 to 1000 nM | B or A | Cc1ncsc1-c1ccc(CNC(=O)[C@@H]2C[C@@H](O)CN2C(=O)[C@@H](NC(=O)C2(F)CC2)C(C)(C)C)c(OCCCCCCCCNc2ccc3c(-c4ccccc4CNc4nc(O[C@@H]5CCCNC5)nc5c(C(C)C)cnn45)nccc3c2)c1 [Compound 22] |
| A (A indicates [fold] > 500) | > 1000 nM | A (A indicates [fold] > 500) | > 1000 nM | A (A indicates [fold] > 500) | > 1000 nM | ≤ 100 nM | ≤ 100 nM |  | Cc1cc(C(C(=O)N2C[C@H](O)C[C@H]2C(=O)NCc2ccc(-c3scnc3C)cc2OCCOCCOCCNc2ccc3c(-c4ccccc4CNc4nc(O[C@@H]5CCCNC5)nc5c(C(C)C)cnn45)nccc3c2)C(C)C)on1 (stereo partly drawn) [Compound 24] |
| A (A indicates [fold] > 500) | > 1000 nM | A (A indicates [fold] > 500) | > 1000 nM | A (A indicates [fold] > 500) | > 1000 nM | ≤ 100 nM | ≤ 100 nM |  | Cc1ncsc1-c1ccc(CNC(=O)[C@@H]2C[C@@H](O)CN2C(=O)[C@@H](NC(=O)C2(F)CC2)C(C)(C)C)c(OCCN2CCC(N3CCC(CNc4ccc5c(-c6ccccc6CNc6nc(O[C@@H]7CCCNC7)nc7c(C(C)C)cnn67)nccc5c4)CC3)CC2)c1 [Compound 25] |
| A (A indicates [fold] > 500) | > 1000 nM | A (A indicates [fold] > 500) | > 1000 nM | A (A indicates [fold] > 500) | > 1000 nM | ≤ 100 nM | > 1000 nM |  | Cc1cc([C@@H](C(=O)N2C[C@H](O)C[C@H]2C(=O)NCc2ccc(-c3scnc3C)cc2OCCOCCOCCNc2ccc3c(-c4ccccc4CNc4nc(O[C@@H]5CCCNC5)nc5c(C(C)C)cnn45)nccc3c2)C(C)C)on1 [Compound 26] |
| B (B indicates 50 < [fold] ≤ 500) | > 1000 nM | B (B indicates 50 < [fold] ≤ 500) | > 1000 nM | B (B indicates 50 < [fold] ≤ 500) | > 1000 nM | 100 to 1000 nM | ≤ 100 nM |  | Cc1cc([C@H](C(=O)N2C[C@H](O)C[C@H]2C(=O)NCc2ccc(-c3scnc3C)cc2OCCOCCOCCNc2ccc3c(-c4ccccc4CNc4nc(O[C@@H]5CCCNC5)nc5c(C(C)C)cnn45)nccc3c2)C(C)C)on1 [Compound 27] |
| A (A indicates [fold] > 500) | > 1000 nM | A (A indicates [fold] > 500) | > 1000 nM | A (A indicates [fold] > 500) | > 1000 nM | ≤ 100 nM | ≤ 100 nM |  | Cc1ncsc1-c1ccc([C@H](C)NC(=O)[C@@H]2C[C@@H](O)CN2C(=O)[C@@H](NC(=O)CCOCCOCCOCCNc2ccc3c(-c4ccccc4CNc4nc(O[C@@H]5CCCNC5)nc5c(C(C)C)cnn45)nccc3c2)C(C)(C)C)cc1 [Compound 28] |
| A (A indicates [fold] > 500) | > 1000 nM | B (B indicates 50 < [fold] ≤ 500) | > 1000 nM | B (B indicates 50 < [fold] ≤ 500) | > 1000 nM | ≤ 100 nM | ≤ 100 nM |  | CC(C)c1cnn2c(NCc3ccccc3-c3nccc4cc(NCC5CCN(CC6CCN(c7ccc8c(c7)C(=O)N(C7CCC(=O)NC7=O)C8=O)CC6)CC5)ccc34)nc(O[C@@H]3CCCNC3)nc12 (stereo partly drawn) [Compound 30] |
